Earlier results, collected in patent US20090214599A1, “PROTON PUMP INHIBITOR FORMULATIONS, AND METHODS OF PREPARING AND USING SUCH FORMULATIONS” (AGI THERAPEUTICS PLC, priority 2008, published 2009).

What was measured:
[1] = healthy subjects
[2] = pH <4

Protein binding: approximately 95%
total body clearance [1]: 500 to 600 mL/min
half-life of degradation in acid conditions [2]: ~10 min
Compound: COc1ccc2[nH]c([S+]([O-])Cc3ncc(C)c(OC)c3C)nc2c1 (stereo not drawn) [omeprazole]
